These results are taken from ChEMBL document CHEMBL1944529, “Structure-based design, synthesis and structure-activity relationships of dibenzosuberyl- and benzoate-substituted tropines as ligands for acetylcholine-binding protein” (Bioorg Med Chem Lett, 2012).

For assay [1], the target named is Acetylcholine-binding protein (Lymnaea stagnalis, UniProt P58154). In words: Displacement of [3H]epibatidine from Lymnaea stagnalis acetylcholine binding protein expressed using baculoviral system after 1.5 hrs by scintillation counting. For orientation: Loss of bound radioactivity is the signal in a displacement assay; it reports binding, not function.
Assay [2] deals with T1, Soluble acetylcholine receptor (Aplysia californica, UniProt Q8WSF8).
T1 sequence (Q8WSF8 whole entry): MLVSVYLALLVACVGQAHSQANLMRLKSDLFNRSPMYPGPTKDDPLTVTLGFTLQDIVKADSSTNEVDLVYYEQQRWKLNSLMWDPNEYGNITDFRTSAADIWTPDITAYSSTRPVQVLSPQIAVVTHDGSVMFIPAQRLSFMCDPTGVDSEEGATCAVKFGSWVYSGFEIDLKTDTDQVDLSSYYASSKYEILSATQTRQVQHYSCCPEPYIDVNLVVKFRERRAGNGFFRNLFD
Nature of the assay: Displacement of [3H]epibatidine from Aplysia californica acetylcholine binding protein expressed using baculoviral system after 1.5 hrs by scintillation counting.

In assay [3] the target is Neuronal acetylcholine receptor subunit alpha-7 (Homo sapiens, UniProt P36544). Nature of the assay: Displacement of [3H]MLA from nAChR alpha7 receptor in human SH-SY5Y cells by scintillation counting. The format is cell-based.
In assay [4] the target is Neuronal acetylcholine receptor; alpha4/beta2 (Homo sapiens, UniProt P17787+P43681). In words: Displacement of [3H]epibatidine from human nAChR alpha4beta2 receptor expressed in human HEK293T cells by scintillation counting. The format is cell-based, HEK-293T.
Chain of Neuronal acetylcholine receptor; alpha4/beta2 (P17787 whole entry): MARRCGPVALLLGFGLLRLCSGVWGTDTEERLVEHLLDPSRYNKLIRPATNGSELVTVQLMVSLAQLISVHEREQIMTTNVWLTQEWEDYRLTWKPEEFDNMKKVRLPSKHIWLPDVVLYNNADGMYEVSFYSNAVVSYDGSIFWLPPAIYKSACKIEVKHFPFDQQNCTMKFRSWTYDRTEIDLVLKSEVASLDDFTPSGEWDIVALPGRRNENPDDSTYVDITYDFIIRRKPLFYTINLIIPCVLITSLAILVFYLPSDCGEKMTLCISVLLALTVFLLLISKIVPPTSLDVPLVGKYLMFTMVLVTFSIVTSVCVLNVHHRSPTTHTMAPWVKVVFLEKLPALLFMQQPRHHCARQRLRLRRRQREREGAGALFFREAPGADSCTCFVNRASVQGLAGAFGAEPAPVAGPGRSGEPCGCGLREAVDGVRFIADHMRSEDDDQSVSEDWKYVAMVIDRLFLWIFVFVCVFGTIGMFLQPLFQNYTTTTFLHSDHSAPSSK
Chain of Neuronal acetylcholine receptor; alpha4/beta2 (P43681 whole entry): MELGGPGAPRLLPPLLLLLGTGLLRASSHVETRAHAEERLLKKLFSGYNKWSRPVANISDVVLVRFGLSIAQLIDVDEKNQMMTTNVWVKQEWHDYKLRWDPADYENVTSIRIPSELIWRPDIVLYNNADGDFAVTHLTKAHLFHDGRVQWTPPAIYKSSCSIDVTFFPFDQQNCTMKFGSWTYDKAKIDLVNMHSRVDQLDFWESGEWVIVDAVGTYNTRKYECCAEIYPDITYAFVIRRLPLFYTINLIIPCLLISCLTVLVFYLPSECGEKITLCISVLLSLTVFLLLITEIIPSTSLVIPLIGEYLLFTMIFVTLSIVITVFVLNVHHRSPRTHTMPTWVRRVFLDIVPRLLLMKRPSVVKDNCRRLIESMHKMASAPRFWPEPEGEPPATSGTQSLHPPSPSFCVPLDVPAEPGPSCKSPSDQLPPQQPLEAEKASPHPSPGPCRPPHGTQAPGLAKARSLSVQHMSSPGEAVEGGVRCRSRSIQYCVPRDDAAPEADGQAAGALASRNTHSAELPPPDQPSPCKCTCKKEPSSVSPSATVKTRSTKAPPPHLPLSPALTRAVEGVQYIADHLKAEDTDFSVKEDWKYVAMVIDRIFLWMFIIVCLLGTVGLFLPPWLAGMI

Chain of Acetylcholine-binding protein (P58154 whole entry): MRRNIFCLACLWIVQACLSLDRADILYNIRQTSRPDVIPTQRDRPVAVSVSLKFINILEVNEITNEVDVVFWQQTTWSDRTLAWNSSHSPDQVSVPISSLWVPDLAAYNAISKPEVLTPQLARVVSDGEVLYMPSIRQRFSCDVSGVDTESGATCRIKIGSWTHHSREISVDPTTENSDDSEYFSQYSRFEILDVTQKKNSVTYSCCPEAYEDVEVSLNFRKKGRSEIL
Chain of Neuronal acetylcholine receptor subunit alpha-7 (P36544 whole entry): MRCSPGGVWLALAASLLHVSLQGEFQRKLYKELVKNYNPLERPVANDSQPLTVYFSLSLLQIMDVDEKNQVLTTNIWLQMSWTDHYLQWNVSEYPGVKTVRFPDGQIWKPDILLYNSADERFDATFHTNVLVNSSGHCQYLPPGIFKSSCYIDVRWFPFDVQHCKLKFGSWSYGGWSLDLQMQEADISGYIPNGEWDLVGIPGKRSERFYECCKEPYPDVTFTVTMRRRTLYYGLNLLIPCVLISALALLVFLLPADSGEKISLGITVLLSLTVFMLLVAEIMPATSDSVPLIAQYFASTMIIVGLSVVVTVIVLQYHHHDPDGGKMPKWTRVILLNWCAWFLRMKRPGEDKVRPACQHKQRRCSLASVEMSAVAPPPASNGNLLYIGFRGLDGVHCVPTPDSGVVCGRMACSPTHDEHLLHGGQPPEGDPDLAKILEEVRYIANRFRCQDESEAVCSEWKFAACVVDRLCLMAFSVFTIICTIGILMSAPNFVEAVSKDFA

One may read the Ki as a measure of affinity in units of concentration, obtained from inhibition or displacement. As for `c1ccc(CN2[C@@H]3CC[C@H]2C[C@@H](OC2c4ccccc4CCc4ccccc42)C3)cc1`, the values for the Ki in assay [1] and in assay [2] were 251 nM and 10000 nM, respectively.
On the same counts, the results for `c1ccc2c(c1)CCc1ccccc1C2O[C@H]1C[C@H]2CC[C@@H](C1)N2` are 1000 nM and 10000 nM.
On to `C[N+]1(C)[C@@H]2CC[C@H]1C[C@@H](OC1c3ccccc3CCc3ccccc31)C2`, for which the Ki was 316 nM in assay [1], 1000 nM in assay [3], 1000 nM in assay [2] and greater than 31600 nM in assay [4].
As to `c1ccc(CCN2[C@@H]3CC[C@H]2C[C@@H](OC2c4ccccc4CCc4ccccc42)C3)cc1`, the Ki in assay [1] is 100 nM; in assay [3] it was 12600 nM; in assay [2] it was 10000 nM; in assay [4], greater than 31600 nM.
Turning to `C[N+]1(CCc2ccccc2)[C@@H]2CC[C@H]1C[C@@H](OC1c3ccccc3CCc3ccccc31)C2` (stereo partly drawn), the Ki was 39.8 nM in assay [1], 1580 nM in assay [3], 631 nM in assay [2] and greater than 31600 nM in assay [4].
For the compound `O=C(O[C@H]1C[C@H]2CC[C@@H](C1)N2)c1ccccc1`, the Ki is 794 nM in assay [1], 3160 nM in assay [3], 5010 nM in assay [2] and greater than 31600 nM in assay [4].
For the compound `O=C(O[C@@H]1C[C@H]2CC[C@@H](C1)N2)c1ccccc1`, the Ki in assay [1] is 7940 nM; in assay [2], 15800 nM.
For `CN1[C@@H]2CC[C@H]1C[C@H](OC(=O)c1ccccc1)C2`, the Ki was 6310 nM in assay [1] and 15800 nM in assay [2].
In the case of `O=C(O[C@H]1C[C@H]2CC[C@@H](C1)N2CCc1ccccc1)c1ccccc1`, the Ki in assay [1] is 79.4 nM; in assay [3], 7940 nM; in assay [2], 31.6 nM; in assay [4] it was greater than 31600 nM.
Turning to `O=C(O[C@@H]1C[C@H]2CC[C@@H](C1)N2CCc1ccccc1)c1ccccc1`, the Ki in assay [1] is 398 nM; in assay [3], 5010 nM; in assay [2], 1000 nM; in assay [4], greater than 31600 nM.
In the case of `C[N+]1(CCc2ccccc2)[C@@H]2CC[C@H]1C[C@@H](OC(=O)c1ccccc1)C2` (stereo partly drawn), the Ki in assay [1] is 31.6 nM; in assay [3], 6310 nM; in assay [2], 158 nM; in assay [4], greater than 31600 nM.
For the compound `O=C(O[C@H]1C[C@H]2CC[C@@H](C1)N2C[C@@H](O)c1ccccc1)c1ccccc1`, the Ki is 1260 nM in assay [1] and 794 nM in assay [2].
The like results for `O=C(O[C@H]1C[C@H]2CC[C@@H](C1)N2C[C@H](O)c1ccccc1)c1ccccc1` were, in that order, 794 nM and 100 nM.
Consider `C[N+]1(CC(O)c2ccccc2)[C@@H]2CC[C@H]1C[C@@H](OC(=O)c1ccccc1)C2` (stereo partly drawn), for which the Ki is 126 nM in assay [1], 10000 nM in assay [3], 2000 nM in assay [2] and greater than 31600 nM in assay [4].
As for `C[N+]1(C[C@H](O)c2ccccc2)[C@@H]2CC[C@H]1C[C@@H](OC(=O)c1ccccc1)C2` (stereo partly drawn), the Ki was 126 nM in assay [1] and 794 nM in assay [2].
With `O=C(O[C@H]1C[C@H]2CC[C@@H](C1)N2CC(O)c1cccc(O)c1)c1ccccc1` (stereo partly drawn), the Ki was 794 nM in assay [1], 25100 nM in assay [3], 631 nM in assay [2] and greater than 31600 nM in assay [4].
Turning to `O=C(O[C@H]1C[C@H]2CC[C@@H](C1)N2CC(O)c1cc(O)cc(O)c1)c1ccccc1` (stereo partly drawn), the Ki in assay [1] was 398 nM; in assay [3], 15800 nM; in assay [2] it was 7940 nM; in assay [4], greater than 31600 nM.
As to `O=C(O[C@@H]1C[C@H]2CC[C@@H](C1)N2CC(O)c1cc(O)cc(O)c1)c1ccccc1` (stereo partly drawn), the Ki in assay [1] was 2000 nM; in assay [3], 12600 nM; in assay [2], 20000 nM; in assay [4] it was greater than 31600 nM.
With `O=C(O[C@H]1C[C@H]2CC[C@@H](C1)N2CCc1cccc(O)c1)c1ccccc1`, the Ki is 100 nM in assay [1], 12600 nM in assay [3], 200 nM in assay [2] and greater than 31600 nM in assay [4].
With `OC(CN1[C@@H]2CC[C@H]1C[C@@H](OC1c3ccccc3CCc3ccccc31)C2)c1ccccc1` (mixture of isomers), the Ki was 2000 nM in assay [1], 20000 nM in assay [3], 12600 nM in assay [2] and greater than 31600 nM in assay [4].
With `Oc1cccc(C(O)CN2[C@@H]3CC[C@H]2C[C@@H](OC2c4ccccc4CCc4ccccc42)C3)c1` (mixture of isomers), the Ki in assay [1] is 2000 nM; in assay [3], 39800 nM; in assay [2], 31600 nM; in assay [4] it was greater than 31600 nM.
For `O=C(O[C@H]1C[C@H]2CC[C@@H](C1)N2CC(O)c1ccccc1)c1ccccc1` (mixture of isomers), the Ki in assay [1] is 631 nM; in assay [3] it was 12600 nM; in assay [2] it was 158 nM; in assay [4] it was greater than 31600 nM.
On to `CN1[C@@H]2CC[C@H]1C[C@@H](OC(=O)c1ccccc1)C2` [BENZOYL TROPINE], for which the Ki in assay [1] was 2000 nM; in assay [3], 15800 nM; in assay [2] it was 3980 nM; in assay [4], greater than 31600 nM.
Regarding `CN1[C@@H]2CC[C@H]1C[C@@H](OC1c3ccccc3CCc3ccccc31)C2` [DEPTROPINE], the Ki in assay [1] is 2000 nM; in assay [2] it was 6310 nM.
As to `CN1[C@@H](CC(=O)c2ccccc2)CCC[C@H]1C[C@H](O)c1ccccc1` [LOBELINE], the Ki is 7940 nM in assay [3] and 2.51 nM in assay [2].
In the case of `CN1CCC[C@H]1c1cccnc1` [NICOTINE], the affinity in assay [2], expressed as Ki, was 2510 nM.
